We go through 1 molecule from US20090142811A1, “Discovery, Cloning and Purification of Thermococccus sp. (Strain 9 Degrees N-7) Dna Ligase” (New England Biolabs, Inc., priority 2005, published 2009).

For this experiment, the target named is T1, Thermococcus sp. (strain 9° N-7) DNA ligase, clone B2, SEQ ID NO:15 (Thermococcus nautili, UniProt W8P6M3).
T1 construct: E. coli BL21(DE3)-RIL; purified
T1 sequence (W8P6M3 with tags, fused parts or gaps): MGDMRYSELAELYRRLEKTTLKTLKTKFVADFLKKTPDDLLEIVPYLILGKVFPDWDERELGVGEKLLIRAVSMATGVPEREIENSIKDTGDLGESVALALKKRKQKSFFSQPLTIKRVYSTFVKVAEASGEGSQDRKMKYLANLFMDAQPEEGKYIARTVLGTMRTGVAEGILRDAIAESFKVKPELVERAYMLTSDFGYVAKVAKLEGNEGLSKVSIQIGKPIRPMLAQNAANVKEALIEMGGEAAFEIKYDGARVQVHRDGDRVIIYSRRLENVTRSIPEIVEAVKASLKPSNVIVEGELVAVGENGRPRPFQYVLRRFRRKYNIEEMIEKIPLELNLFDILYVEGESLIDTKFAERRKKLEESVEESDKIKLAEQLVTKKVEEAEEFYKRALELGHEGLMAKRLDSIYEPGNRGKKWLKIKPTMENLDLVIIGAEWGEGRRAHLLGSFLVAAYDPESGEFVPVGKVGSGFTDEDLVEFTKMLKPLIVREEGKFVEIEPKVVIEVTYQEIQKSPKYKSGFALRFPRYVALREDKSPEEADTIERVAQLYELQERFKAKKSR
The experiment in a line: Km for ATP of purified Thermococcus sp. (strain 9° N-7) DNA ligase (ligation of lambda DNA). It is filed as biochemical. Particulars: typical assay: predigested lambda DNA substrate, 45° C.; recommended 10 mM Tris-HCl pH 7.5, 2.5 mM MgCl2, 2.5 mM DTT. On the procedure:
The recommended reaction conditions are:
The typical substrate for assaying activity at 45° C. is lambda DNA. Appropriately digested lambda DNA can reveal the state of ligation of the 12-base extension at the termini of lambda DNA. We typically used either a HindIII or BstEII predigested lambda DNA. Analysis of the ligation was performed on agarose gel electrophoresis.

SMILES strings stand for the structures.

In the case of `Nc1ncnc2c1ncn2[C@@H]1O[C@H](COP(=O)(O)OP(=O)(O)OP(=O)(O)O)[C@@H](O)[C@H]1O` [ATP], the Km is under 100 µM.

Usually Km stands for the concentration of substrate that gives half-maximal velocity.
